# Test results: patent US20210187014A1 (The Regents of the University of Colorado, a body corporate, priority 2018, published 2021)
# “Also recorded” adds a separate entry of the source.
# Assays:
# [1] = system: C. elegans smf-3/DMT1 mutant; experiment: Growth of iron-deficient C. elegans smf-3/DMT1(-) mutant with iron chelator 2,2'-bipyridyl; assay type: in vivo
# Experimental: FIG. 26. […] All tests were done on a smf-3/DMT1(-) mutant strain in a culture media where an iron chelator (2,2′-bipyridyl) was added to reduce the environmental iron level (FIG. 26A). […] This growth delay was rescued by supplementation with Ent, scored as the percentage of the population at the indicated growth stage. […] The entP,fepA: E. coli mutant cannot synthesize or utilize Enterobactin.
# SMF-3/DMT1 is a conserved divalent metal transporter that transports iron into intestinal cells. The smf-3/DMT1 mutant has been established as an iron deficiency model in C. elegans. These mutants have defective iron uptake that results in iron deficiency (Romney et al 2011) and delayed growth under iron-poor growth conditions created by addition of an iron chelator (2,2′-bipyridyl) to the culture media (Raj an et al 2019).
# To determine if the Enterobactin supplementation was benefiting the worm directly or benefiting the worm through an E. coli-dependent mechanism, the test was repeated using an E. coli double mutant that cannot synthesize or utilize Ent (entP,fepk).
# [2] = system: MEL cells; experiment: Erythroid differentiation of MEL cells (color change of cell pellets); assay type: cell-based, murine; conditions: equimolar supplementation
# Experimental: FIG. 27. Ferric Enterobactin supplementation benefits differentiation of erythroid progenitor cells (MEL) to red blood cells. (FIG. 27A) MEL cells were grown with the indicated treatments. Cell pellets are shown. (FIG. 27B) Quantification of MEL color change presented as the average intensity of each cell pellet, normalized to the intensity of the control. Error bars are the standard deviation of three technical replicates.
# MEL cells are murine erythroid progenitor cells that are arrested at the proerythroblast stage. In the laboratory, these cells are induced to undergo erythroid differentiation to red blood cells by addition of various chemicals (e.g. 2% DMSO) (Friend, 1971). Erythroid differentiation is an iron-dependent process that results in a color change in the differentiated cells. The present inventors tested if addition of Fe-Ent would positively impact the differentiation of wild-type MEL cells to red blood cells.
# [3] = system: HEK293 cells; experiment: Cellular iron level by Calcein AM fluorescence in HEK293 cells +/- iron chelator DFO; assay type: cell-based, human
# Experimental: Here, a similar test was done in human HEK293 cells. […] The present inventors then created a low-iron condition by adding an iron chelator, Deferoxamine (DFO) to the medium (FIG. 18A). […] The assay was also performed using mouse intestinal epithelial (MODE-K) cells.
# [4] = system: anemic mouse model (dietary anemia); experiment: Anemic mouse model (dietary anemia), Ent in drinking water; assay type: in vivo; conditions: male mice on iron-deficient diet, two weeks
# Experimental: The inventors fed 3-week old male mice an iron-deficient diet (IDD) (or control diet) for 5 weeks to induce anemia. They were then fed IDD +/− Ent added to the drinking water for two more weeks. Fresh dilutions of Ent in water were provided once per week. As generally shown in FIG. 21, mice continuously fed the iron-adequate control diet (CD) were included as the control. Hemoglobin level was measured by a Hemavet Blood Analyzer. Mean value±SD is shown.
# [5] = Ent stability by CAS liquid assay; assay type: physicochemical
# From the text: FIG. 25. […] Degradation is indicated by increased absorbance. […] Degradation is indicated by increased relative fluorescence. […] For all tests, dilutions were kept at room temp and exposed to light. Error is standard deviation of the mean.
# [6] = system: mitochondria; experiment: In vitro mitochondrial iron uptake assay, mitochondria purified from worms (55Fe); assay type: biochemical, C. elegans; conditions: purified mitochondria incubated with 55FeCl3 +/- Ent
# Experimental: Mitochondrial iron uptake assays. For the in vitro mitochondrial iron uptake assay, the present inventors modified a published procedure for analysis of mammalian cells (Devireddy et al., 2010). […] The samples were incubated for 4 hours at room temperature, and the amount of 55Fe in lysed mitochondria was determined by liquid scintillation.
smiles,measurement,setting,value
"O=C(N[C@H]1COC(=O)[C@@H](NC(=O)c2cccc(O)c2O)COC(=O)[C@@H](NC(=O)c2cccc(O)c2O)COC1=O)c1cccc(O)c1O [Ent, enterobactin]",growth of smf-3(-) mutants,[1]; E. coli double mutant that cannot synthesize or utilize Ent,rescued the growth of smf-3(-) mutants to adulthood
same,growth of smf-3(-) mutants,"[1]; iron chelator 2,2'-bipyridyl in media",rescued the growth of smf-3(-) mutants to adulthood
same,MEL differentiation to red blood cells,[2],decrease in differentiation
same,decrease in Calcein AM fluorescence with Ent addition,"[3]; medium with DFO, Ent 1.5 uM",45%
same,iron level recovery,"[3]; medium with DFO, Ent 1.5 uM",mostly recovered; also recorded: largely recovered
same,increase of cellular iron uptake,[3]; standard culture medium,~33%
same,hemoglobin level,[4],significantly improved
same,stability,"[5]; 100% DMSO, room temp, light",little change during the assay period
same,stability in H2O at varying pH,[5]; H2O pH 6.5/7,more stable than the other dilutions in acidic and basic H2O
same,time of rapid degradation,"[5]; H20 (pH 5.5) with 10% DMSO, room temp, light",≤ 60 min
same,stability in deionized water,[5]; pH 5.5,highly unstable
same,increase in 55Fe level in mitochondria,[6],10 fold
